System: SW1271 complex spheroids with HUVEC/MSC, growth, % test/control
Assay: Anticancer human tumor SW1271 cell line growth inhibition [AhR];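 further: spheroids exposed to agents for 7 days before readout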
Settings: for IC50: curve of first compound; for viability, T/C: stronger effect = lower value
How it was run: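 Spheroids combined tumor cells with HUVEC endothelial cells and human MSCs as stroma. AhR antagonists were paired with standard or investigational drugs, each dosed in half-log steps down from near clinical Cmax, or from 10 microM where Cmax was unknown.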

[1] = second compound 0.1 µM, first compound 0.0316 µM
[2] = second compound 0.1 µM, first compound 0.1 µM
[3] = second compound 0.1 µM, first compound 0.316 µM
[4] = second compound 0.1 µM, first compound 1 µM
[5] = second compound 0.316 µM, first compound 0.0316 µM
[6] = second compound 0.316 µM, first compound 0.1 µM
[7] = second compound 0.316 µM, first compound 0.316 µM
[8] = second compound 0.316 µM, first compound 1 µM
[9] = second compound 1 µM, first compound 0.0316 µM
[10] = second compound 1 µM, first compound 0.1 µM
[11] = second compound 1 µM, first compound 0.316 µM
[12] = second compound 1 µM, first compound 1 µM
[13] = second compound 3.16 µM, first compound 0.0316 µM
[14] = second compound 3.16 µM, first compound 0.1 µM
[15] = second compound 3.16 µM, first compound 0.316 µM
[16] = second compound 3.16 µM, first compound 1 µM
[17] = second compound 10 µM, first compound 0.0316 µM
[18] = second compound 10 µM, first compound 0.1 µM
[19] = second compound 10 µM, first compound 0.316 µM
[20] = second compound 10 µM, first compound 1 µM

Compound	IC50 (second compound 0.1 µM)	IC50 (second compound 0.316 µM)	IC50 (second compound 1 µM)	IC50 (second compound 3.16 µM)	IC50 (second compound 10 µM)	viability, T/C [1]	viability, T/C [2]	viability, T/C [3]	viability, T/C [4]	viability, T/C [5]	viability, T/C [6]	viability, T/C [7]	viability, T/C [8]	viability, T/C [9]	viability, T/C [10]	viability, T/C [11]	viability, T/C [12]	viability, T/C [13]	viability, T/C [14]	viability, T/C [15]	also measured
CC(C)c1c(-c2ccccc2)nc2c(C#N)c[nH]n2c1=O + CC(CO)NC(=O)c1cc(-c2ccc(Cl)cc2)nn(-c2cnn(C)c2)c1=O	> 10000 nM	> 10000 nM	> 10000 nM	> 10000 nM	> 10000 nM	88.4%	101%	106%	90.9%	88.7%	85.3%	91.4%	98.1%	78.7%	89.9%	86.4%	78.7%	95.7%	97.8%	80.1%	viability, T/C (second compound 0.1 µM, first compound 3.16 µM): 95.7%; viability, T/C (second compound 0.1 µM, first compound 10 µM): 121%; viability, T/C (second compound 0.316 µM, first compound 3.16 µM): 93.8%; viability, T/C (second compound 0.316 µM, first compound 10 µM): 108%; viability, T/C (second compound 1 µM, first compound 3.16 µM): 107%; viability, T/C (second compound 1 µM, first compound 10 µM): 94.8%; viability, T/C [16]: 78%; viability, T/C (second compound 3.16 µM, first compound 3.16 µM): 82.8%; viability, T/C (second compound 3.16 µM, first compound 10 µM): 76.8%; viability, T/C [17]: 71.8%; viability, T/C [18]: 80.8%; viability, T/C [19]: 67.8%; viability, T/C [20]: 71.3%; viability, T/C (second compound 10 µM, first compound 3.16 µM): 62.9%; viability, T/C (second compound 10 µM, first compound 10 µM): 77.8%
CC1COCCN1c1cc(-c2ccnn2C)c2ccnc(-c3ccn[nH]3)c2n1 (stereo not given) + CC(CO)NC(=O)c1cc(-c2ccc(Cl)cc2)nn(-c2cnn(C)c2)c1=O	916 nM	867 nM	> 1000 nM	694 nM	543 nM	94.4%	82.1%	67.8%	48.5%	81.7%	84.3%	70%	46.8%	86.7%	80.7%	65.7%	49.1%	75.5%	75.9%	57.2%	viability, T/C (second compound 0.1 µM, first compound 0.00316 µM): 102%; viability, T/C (second compound 0.1 µM, first compound 0.01 µM): 97.5%; viability, T/C (second compound 0.316 µM, first compound 0.00316 µM): 92.5%; viability, T/C (second compound 0.316 µM, first compound 0.01 µM): 96.1%; viability, T/C (second compound 1 µM, first compound 0.00316 µM): 110%; viability, T/C (second compound 1 µM, first compound 0.01 µM): 98.2%; viability, T/C (second compound 3.16 µM, first compound 0.00316 µM): 84.5%; viability, T/C (second compound 3.16 µM, first compound 0.01 µM): 79.2%; viability, T/C [16]: 45.6%; viability, T/C (second compound 10 µM, first compound 0.00316 µM): 88.9%; viability, T/C (second compound 10 µM, first compound 0.01 µM): 75%; viability, T/C [17]: 68.5%; viability, T/C [18]: 66.6%; viability, T/C [19]: 47.9%; viability, T/C [20]: 47.6%

Source: PubChem BioAssay AID1919017 (Molecular Pharmacology Branch, DTP, NCI, 2023)
